Source: ChEMBL document CHEMBL2074098, “Estradiol 17 beta-D-glucuronide is a high-affinity substrate for oatp organic anion transporter” (Am J Physiol, 1996)

B1: Solute carrier organic anion transporter family member 1A1 (Rattus norvegicus) (protein)
chain: MEETEKKIATQEGRLFSKMKVFLLSLTCACLTKSLSGVYMNSMLTQIERQFDISTSVAGLINGSFEIGNLFFIVFVSYFGTKLHRPVVIGIGCVIMGLGCLLMSLPHFFMGRYEYETTISPTGNLSSNSFLCMENRTQTLKPTQDPAECVKEMKSLMWICVMVGNIIRGIGETPIVPLGISYIEDFAKSENSPLYIGILEMGKVAGPIFGLLLGSYCAQIYVDIGSVNTDDLTITPSDTRWVGAWWIGFLVCAGVNILTSIPFFFLPKALPKKGQQENVAVTKDGKVEKYGGQAREENLGITKDFLTFMKRLFCNPIYMLFILTSVLQVNGFINKFTFLPKYLEQQYGKSTAEAIFLIGVYSLPPICLGYLIGGFIMKKFKITVKKAAYLAFCLSVFEYLLFLCHFMLTCDNAAVAGLTTSYKGVQHQLHVESKVLADCNTRCSCSTNTWDPVCGDNGVAYMSACLAGCKKFVGTGTNMVFQDCSCIQSLGNSSAVLGLCKKGPECANRLQYFLILTIIISFIYSLTAIPGYMVFLRCVKSEEKSLGVGLHTFCIRVFAGIPAPVYFGALIDRTCLHWGTLKCGQRGACRMYDINSFRHIYLGLPIALRGSSYLPAFFILILMRKFQFPGDIDSSATDHTEMMLGEKESEHTDVHGSPQVENDGELKTKL

Each molecule was assayed against T1, Solute carrier organic anion transporter family member 1A1 (Rattus norvegicus, UniProt P46720) (assay: TP_TRANSPORTER: inhibition of E217betaG uptake in Oatp1-expressing HeLa cells).
T1 sequence (P46720 whole entry): B1 chain
Type: functional, cell-based

Point of comparison: `CC(=O)O[C@@H]1CC[C@@]2(C)[C@@H](CC[C@@H]3[C@@H]2CC[C@]2(C)C(=O)CC[C@@H]32)C1` [ANDROSTERONE ACETATE], Ki 76.2 µM. Against it:
- C#C[C@]1(OS(=O)(=O)O)CC[C@H]2[C@@H]3CCc4cc(O)ccc4[C@H]3CC[C@@]21C — 59-fold lower, 1.3 µM
- C[C@]12CC[C@@H]3c4ccc(O)cc4CC[C@H]3[C@@H]1CC[C@@]2(O)CC(=O)O — higher, > 200 µM
- C[C@]12CC[C@@H]3c4ccc(OS(=O)(=O)O)cc4CC[C@H]3[C@@H]1CC[C@@H]2O — 69-fold lower, 1.1 µM
- C[C@]12CC[C@@H]3c4ccc(O[C@@H]5O[C@H](C(=O)O)[C@@H](O)[C@H](O)[C@H]5O)cc4CC[C@H]3[C@@H]1CC[C@@H]2O — 7.9-fold lower, 9.7 µM
- C[C@]12CC[C@@H](OS(=O)(=O)O)C[C@@H]1CC[C@@H]1[C@@H]2CC[C@]2(C)C(=O)CC[C@@H]12 — 32-fold lower, 2.4 µM
- C[C@]12CC[C@H]3[C@@H](CCC4=CC(=O)CC[C@@]43C)[C@@H]1CC[C@@H]2O[C@@H]1O[C@H](C(=O)O)[C@@H](O)[C@H](O)[C@H]1O — 20-fold lower, 3.8 µM
- C[C@]12C[C@H](O)[C@H]3[C@@H](CCC4=CC(=O)CC[C@@]43C)[C@@H]1CC[C@@H]2C(=O)COS(=O)(=O)O — 48-fold lower, 1.6 µM
- C[C@]12CC[C@@H](O)C[C@@H]1CC[C@@H]1[C@@H]2CC[C@]2(C)C(=O)CC[C@@H]12 [ANDROSTERONE] — 7.2-fold lower, 10.6 µM
- C[C@]12C[C@H](O)[C@H]3[C@@H](CCC4=CC(=O)CC[C@@]43C)[C@@H]1CC[C@@H]2C(=O)CO [CORTICOSTERONE] — 14-fold lower, 5.3 µM
- C[C@]12CC[C@@H]3c4ccc(O)cc4CC[C@H]3[C@@H]1CC[C@@H]2O [ESTRADIOL] — 16-fold lower, 4.7 µM
- C[C@]12CC[C@@H]3c4ccc(O)cc4CC[C@H]3[C@@H]1C[C@@H](O)[C@@H]2O [ESTRIOL] — 7.8-fold lower, 9.8 µM
- C[C@]12CC[C@@H]3c4ccc(OS(=O)(=O)O)cc4CC[C@H]3[C@@H]1CCC2=O [ESTRONE SULFURIC ACID] — 59-fold lower, 1.3 µM
- C[C@]12CC[C@@H]3c4ccc(O)cc4CC[C@H]3[C@@H]1CCC2=O [ESTRONE] — 4.9-fold lower, 15.7 µM
- C[C@]12CC[C@H]3[C@@H](CCC4=CC(=O)CC[C@@]43C)[C@@H]1CC[C@@H]2O [TESTOSTERONE] — 14-fold lower, 5.4 µM

These molecules were tested on C[C@]12CC[C@@H]3c4ccc(O)cc4CC[C@H]3[C@@H]1CC[C@@H]2O[C@@H]1O[C@H](C(=O)O)[C@@H](O)[C@H](O)[C@H]1O (assay: TP_TRANSPORTER: uptake in Oatp1-expressing HeLa cells).
Type: functional, cell-based

B1 showed a Km of 3.2 µM.
